The results in this text go back to patent publication US20230365537A1, “POLO LIKE KINASE 4 INHIBITORS” (ORIC Pharmaceuticals, Inc., priority 2021, published 2023).

One test deals with CHP-134 cells. In words: CHP134 CellTiter-Glo (CTG) Assay. Format: cell-based. To be noted: Homo sapiens, CHP-134, 120 h, 5 days, viable cells by CellTiter-Glo. The method, boiled down: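 Nine-point 1:3 dilution series, diluted into growth media, added in quadruplicate to CHP-134 cells plated 16 h earlier at 200 cells/well.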
Test [1] deals with human recombinant Aurora B (Homo sapiens (Human), UniProt Q96GD4). In words: Aurora B Kinase Biochemical Assay (ADP-Glo). To be noted: ratio of Aurora B IC50 to PLK4 IC50 (selectivity). The method, boiled down:
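IC50 derived by four-parameter nonlinear fit of ADP-Glo luminescence (ADP produced). Compound was preincubated 15 min at RT with 20 nM recombinant human Aurora B, in 50 mM HEPES pH 7.5, 10 mM MgCl2, 1 mM EGTA, 1 mM DTT, 0.01% Brij-35/BSA.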

The next test has as its target human recombinant PLK4 (Homo sapiens (Human), UniProt O00444). The test can be described thus: PLK4 Biochemical Assay (ADP-Glo). The following applies: 0.5 nM PLK4, 8.0 µM ATP, 4.7 µM MBP, 6 hours at RT. In short, it runs like this:
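Luminescent ADP-Glo detection quantified ADP production, with ATP depletion for 40 min and detection for 30 min at room temperature. Compound and PLK4 (1.0 nM stock addition) were preincubated 15 min in HEPES pH 7.5 buffer containing MgCl2, EGTA, DTT, Brij-35 and BSA. IC50 values were obtained by four-parameter nonlinear regression.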
For orientation: In ADP-Glo the light output rises with the ADP produced.

The target of test [2] is human recombinant Aurora A (Homo sapiens (Human), UniProt O14965). The test can be described thus: Aurora A Kinase Biochemical Assay (ADP-Glo). To be noted: ratio of Aurora A IC50 to PLK4 IC50 (selectivity).
Chain of human recombinant Aurora A (O14965 whole entry): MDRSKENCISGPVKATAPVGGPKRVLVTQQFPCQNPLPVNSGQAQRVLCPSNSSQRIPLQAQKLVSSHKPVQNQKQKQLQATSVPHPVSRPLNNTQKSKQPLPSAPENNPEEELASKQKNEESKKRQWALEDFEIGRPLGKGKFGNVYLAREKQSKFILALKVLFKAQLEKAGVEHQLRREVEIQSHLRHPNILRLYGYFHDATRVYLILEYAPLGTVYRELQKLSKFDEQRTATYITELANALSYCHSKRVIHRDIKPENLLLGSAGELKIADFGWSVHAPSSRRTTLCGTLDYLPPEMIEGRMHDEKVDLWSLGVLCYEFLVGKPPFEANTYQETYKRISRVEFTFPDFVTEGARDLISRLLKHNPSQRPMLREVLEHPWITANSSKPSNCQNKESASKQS

Chain of human recombinant PLK4 (O00444 whole entry): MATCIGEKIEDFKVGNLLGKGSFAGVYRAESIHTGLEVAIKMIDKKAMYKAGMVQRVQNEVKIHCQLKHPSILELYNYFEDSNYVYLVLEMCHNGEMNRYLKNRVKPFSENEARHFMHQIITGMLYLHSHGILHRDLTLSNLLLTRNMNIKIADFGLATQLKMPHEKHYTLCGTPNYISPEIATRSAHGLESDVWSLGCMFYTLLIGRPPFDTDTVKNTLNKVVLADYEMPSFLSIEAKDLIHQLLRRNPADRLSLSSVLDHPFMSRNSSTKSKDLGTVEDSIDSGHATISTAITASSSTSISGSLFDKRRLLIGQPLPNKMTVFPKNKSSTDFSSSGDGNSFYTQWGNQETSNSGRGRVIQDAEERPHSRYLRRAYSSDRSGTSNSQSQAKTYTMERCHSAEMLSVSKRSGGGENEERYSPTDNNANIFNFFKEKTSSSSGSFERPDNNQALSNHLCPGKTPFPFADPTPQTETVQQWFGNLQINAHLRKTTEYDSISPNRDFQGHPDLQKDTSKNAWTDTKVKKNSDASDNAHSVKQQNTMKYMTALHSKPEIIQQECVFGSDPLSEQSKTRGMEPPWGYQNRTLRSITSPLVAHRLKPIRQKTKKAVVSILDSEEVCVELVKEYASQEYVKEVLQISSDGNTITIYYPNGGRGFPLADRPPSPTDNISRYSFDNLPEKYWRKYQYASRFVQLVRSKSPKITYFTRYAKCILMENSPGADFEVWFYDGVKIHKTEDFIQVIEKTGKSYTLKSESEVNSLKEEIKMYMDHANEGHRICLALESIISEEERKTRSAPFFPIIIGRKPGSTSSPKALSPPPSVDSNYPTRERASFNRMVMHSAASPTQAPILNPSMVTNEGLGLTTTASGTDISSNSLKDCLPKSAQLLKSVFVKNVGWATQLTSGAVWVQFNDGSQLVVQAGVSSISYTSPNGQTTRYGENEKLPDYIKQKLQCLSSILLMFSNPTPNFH
Chain of human recombinant Aurora B (Q96GD4 whole entry): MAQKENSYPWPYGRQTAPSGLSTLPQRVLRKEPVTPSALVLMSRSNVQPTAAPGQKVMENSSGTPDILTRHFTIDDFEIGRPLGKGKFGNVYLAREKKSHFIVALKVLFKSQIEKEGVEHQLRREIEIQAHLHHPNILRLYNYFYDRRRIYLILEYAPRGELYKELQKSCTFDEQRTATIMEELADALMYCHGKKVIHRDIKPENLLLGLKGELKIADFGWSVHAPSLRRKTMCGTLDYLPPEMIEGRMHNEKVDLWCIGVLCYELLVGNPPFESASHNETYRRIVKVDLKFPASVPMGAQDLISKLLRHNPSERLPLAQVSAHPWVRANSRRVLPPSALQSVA

As usually defined, the IC50 is the concentration that inhibits the measured activity by half. On to `CCP(=O)(CC)c1ccc(Nc2n[nH]c3cc([C@@H]4C[C@@]45C(=O)Nc4ccc(OC)cc45)ccc23)c(OC)n1` [Example 257, (1R,2S)-2-(3-{[6-(diethylphosphoryl)-2-methoxypyridin-3-yl]amino}-1H-indazol-6-yl)-5′-methoxyspiro[cyclopropane-1,3′-indol]-2′(1′H)-one], for which the IC50 worked out at 1590 nM with CHP-134 cells and 3.91 nM on human recombinant PLK4. The “[Aurora B IC50 (nM)]/[PLK4 IC50 (nM)]” value in test [1] was 324.5524. Also, the “[Aurora A IC50 (nM)]/[PLK4 IC50 (nM)]” value in test [2] is listed as 1259.8465.

As to `COc1ccc2c(c1)[C@]1(C[C@H]1c1ccc3c(Nc4ncc(S(=O)(=O)C5CC5)cc4OC)n[nH]c3c1)C(=O)N2` [Example 258, (1R,2S)-2-(3-{[5-(Cyclopropanesulfonyl)-3-methoxypyridin-2-yl]amino}-1H-indazol-6-yl)-5′-methoxyspiro[cyclopropane-1,3′-indol]-2′(1′H)-one], the IC50 was 168 nM in the test with CHP-134 cells and 1.41 nM at human recombinant PLK4. Moreover, the “[Aurora B IC50 (nM)]/[PLK4 IC50 (nM)]” value in test [1] was 464.7558. Moreover, the “[Aurora A IC50 (nM)]/[PLK4 IC50 (nM)]” value in test [2] is on record as 1100.4954.

In the case of `COc1ccc2c(c1)[C@]1(C[C@H]1c1ccc3c(Nc4ncc(S(=O)(=O)C5CCOCC5)cc4OC)n[nH]c3c1)C(=O)N2` [Example 259, (1R,2S)-5′-methoxy-2-(3-{[3-methoxy-5-(oxane-4-sulfonyl)pyridin-2-yl]amino}-1H-indazol-6-yl)spiro[cyclopropane-1,3′-indol]-2′(1′H)-one], the IC50 in the test on CHP-134 cells came to 900 nM; on human recombinant PLK4 it was 0.971 nM. In test [1], the “[Aurora B IC50 (nM)]/[PLK4 IC50 (nM)]” value is reported as 835.2904. For the same compound, the “[Aurora A IC50 (nM)]/[PLK4 IC50 (nM)]” value in test [2] was determined as 1294.8084.

`CCS(=O)(=O)c1cc(OC)c(Nc2n[nH]c3cc([C@@H]4C[C@@]45C(=O)Nc4ccc(OC)cc45)ccc23)cn1` [Example 262, (1R,2S)-2-(3-{[6-(ethanesulfonyl)-4-methoxypyridin-3-yl]amino}-1H-indazol-6-yl)-5′-methoxyspiro[cyclopropane-1,3′-indol]-2′(1′H)-one]: the IC50 with CHP-134 cells was 507 nM; at human recombinant PLK4, 1.39 nM. Also, the “[Aurora B IC50 (nM)]/[PLK4 IC50 (nM)]” value in test [1] was determined as 526.7. For the same compound, the “[Aurora A IC50 (nM)]/[PLK4 IC50 (nM)]” value in test [2] is 3488.1209.

Regarding `COc1ccc2c(c1)[C@]1(C[C@H]1c1ccc3c(Nc4ncc(C(=O)N5CCC5)cc4OC)n[nH]c3c1)C(=O)N2` [Example 263, (1R,2S)-2-(3-{[5-(azetidine-1-carbonyl)-3-methoxypyridin-2-yl]amino}-1H-indazol-6-yl)-5′-methoxyspiro[cyclopropane-1,3′-indol]-2′(1′H)-one], the IC50 in the test on CHP-134 cells turned out to be 599 nM; on human recombinant PLK4, 0.65 nM. The “[Aurora B IC50 (nM)]/[PLK4 IC50 (nM)]” value in test [1] is 181.6923. Further, the “[Aurora A IC50 (nM)]/[PLK4 IC50 (nM)]” value in test [2] worked out at 1133.6923.

For the compound `COc1ccc2c(c1)[C@]1(C[C@H]1c1ccc3c(Nc4ncc(C(=O)N5CCOCC5)cc4OC)n[nH]c3c1)C(=O)N2` [Example 264, (1R,2S)-5′-methoxy-2-(3-{[3-methoxy-5-(morpholine-4-carbonyl)pyridin-2-yl]amino}-1H-indazol-6-yl)spiro[cyclopropane-1,3′-indol]-2′(1′H)-one], the half-inhibitory concentration (IC50) in the test with CHP-134 cells turned out to be 860 nM; on human recombinant PLK4 it was 0.785 nM. In addition, in test [1], the “[Aurora B IC50 (nM)]/[PLK4 IC50 (nM)]” value was 66.6751. In test [2], the “[Aurora A IC50 (nM)]/[PLK4 IC50 (nM)]” value worked out at 307.8980.

In the case of `COc1ccc2c(c1)[C@]1(C[C@H]1c1ccc3c(Nc4cc5c(cc4OC)C(=O)N(C)C5)n[nH]c3c1)C(=O)N2` [Example 265, (1R,2S)-5′-methoxy-2-{3-[(6-methoxy-2-methyl-1-oxo-2,3-dihydro-1H-isoindol-5-yl)amino]-1H-indazol-6-yl)spiro[cyclopropane-1,3′-indol]-2′(1′H)-one], the IC50 in the test on CHP-134 cells was 1070 nM; on human recombinant PLK4, 1.98 nM. Moreover, the “[Aurora B IC50 (nM)]/[PLK4 IC50 (nM)]” value in test [1] is given as 725.3912. Besides, in test [2], the “[Aurora A IC50 (nM)]/[PLK4 IC50 (nM)]” value is listed as 686.

For the compound `COc1ccc2c(c1)[C@]1(C[C@H]1c1ccc3c(Nc4ccc5c(c4OC)CN(C)C5=O)n[nH]c3c1)C(=O)N2` [Example 266, (1R,2S)-5′-methoxy-2-{3-[(4-methoxy-2-methyl-1-oxo-2,3-dihydro-1H-isoindol-5-yl)amino]-1H-indazol-6-yl}spiro[cyclopropane-1,3′-indol]-2′(1′H)-one], the IC50 in the test on CHP-134 cells is 792 nM; at human recombinant PLK4, 2.34 nM. For the same compound, in test [1], the “[Aurora B IC50 (nM)]/[PLK4 IC50 (nM)]” value worked out at 154.9914. Further, in test [2], the “[Aurora A IC50 (nM)]/[PLK4 IC50 (nM)]” value came out at 723.9761.

For `COc1ccc2c(c1)[C@]1(C[C@H]1c1ccc3c(Nc4ncc(S(=O)(=O)N5CCCO5)cc4OC)n[nH]c3c1)C(=O)N2` [Example 267, (1R,2S)-5′-methoxy-2-(3-{[3-methoxy-5-(1,2-oxazolidine-2-sulfonyl)pyridin-2-yl]amino}-1H-indazol-6-yl)spiro[cyclopropane-1,3′-indol]-2′(1′H)-one], the IC50 with CHP-134 cells stood at 325 nM; at human recombinant PLK4, 1.57 nM. The “[Aurora B IC50 (nM)]/[PLK4 IC50 (nM)]” value in test [1] is recorded as 406.8833. Also, the “[Aurora A IC50 (nM)]/[PLK4 IC50 (nM)]” value in test [2] is listed as 789.0376.

For the compound `COc1ccc2c(c1)[C@]1(C[C@H]1c1ccc3c(Nc4ncc(S(=O)(=O)N5CCC5)cc4OC)n[nH]c3c1)C(=O)N2` [Example 268, (1R,2S)-2-(3-{[5-(azetidine-1-sulfonyl)-3-methoxypyridin-2-yl]amino}-1H-indaxol-6-yl)-5′-methoxyspiro[cyclopropane-1,3′-indol]-2′(1′H)-one], the IC50 with CHP-134 cells was 124 nM; on human recombinant PLK4 it was 0.874 nM. Besides, the “[Aurora B IC50 (nM)]/[PLK4 IC50 (nM)]” value in test [1] turned out to be 769.9084. For the same compound, in test [2], the “[Aurora A IC50 (nM)]/[PLK4 IC50 (nM)]” value worked out at 1159.

As for `COc1ccc2c(c1)[C@]1(C[C@H]1c1ccc3c(Nc4ncc(S(=O)(=O)NC5(C)COC5)cc4OC)n[nH]c3c1)C(=O)N2` [Example 269, 5-methoxy-6-({6-[(1R,2S)-5′-methoxy-2′-oxo-1′,2′-dihydrospiro[cyclopropane-1,3′-indol]-2-yl]-1H-indazol-3-yl}amino)-N-(3-methyloxetan-3-yl)pyridine-3-sulfonamide], the IC50 was found to be 1350 nM with CHP-134 cells and 0.89 nM on human recombinant PLK4. Also, the “[Aurora B IC50 (nM)]/[PLK4 IC50 (nM)]” value in test [1] worked out at 138.7640. For the same compound, the “[Aurora A IC50 (nM)]/[PLK4 IC50 (nM)]” value in test [2] was 191.7977.

On to `COc1ccc2c(c1)[C@]1(C[C@H]1c1ccc3c(Nc4ncc(S(=O)(=O)N(C)C5(C)COC5)cc4OC)n[nH]c3c1)C(=O)N2` [Example 270, 5-methoxy-6-({6-[(1R,2S)-5′-methoxy-2′-oxo-1′,2′-dihydrospiro[cyclopropane-1,3′-indol]-2-yl]-1H-indazol-3-yl}amino)-N-methyl-N-(3-methyloxetan-3-yl)pyridine-3-sulfonamide], for which the IC50 was found to be 269 nM with CHP-134 cells and 0.564 nM at human recombinant PLK4. In addition, the “[Aurora B IC50 (nM)]/[PLK4 IC50 (nM)]” value in test [1] worked out at 1790.7801. For the same compound, the “[Aurora A IC50 (nM)]/[PLK4 IC50 (nM)]” value in test [2] is 473.6.

As to `CCOc1cc(S(C)(=O)=O)ccc1Nc1n[nH]c2cc([C@@H]3C[C@@]34C(=O)Nc3ccc(OC)cc34)ccc12` [Example 272, (1R,2S)-2-{3-[2-Ethoxy-4-(methanesulfonyl)anilino]-1H-indazol-6-yl}-5′-methoxyspiro[cyclopropane-1,3′-indol]-2′(1′H)-one], the values for the IC50 in the test on CHP-134 cells and on human recombinant PLK4 were 77.8 nM and 0.833 nM, respectively. Also, in test [1], the “[Aurora B IC50 (nM)]/[PLK4 IC50 (nM)]” value came out at 448.8595. Besides, in test [2], the “[Aurora A IC50 (nM)]/[PLK4 IC50 (nM)]” value was 3273.7094.

For `CCOc1cc(S(=O)(=O)N2CCN(C)CC2)cnc1Nc1n[nH]c2cc([C@@H]3C[C@@]34C(=O)Nc3ccc(OC)cc34)ccc12` [Example 273, (1R,2S)-2-(3-{[3-ethoxy-5-(4-methylpiperazine-1-salfonyl)pyridin-2-yl]amino)-1H-indazol-6-yl)-5′-methoxyspiro[cyclopropane-1,3′-indol]-2′(1′H)-one], the IC50 in the test with CHP-134 cells is 1700 nM; at human recombinant PLK4, 1.45 nM. For the same compound, the “[Aurora B IC50 (nM)]/[PLK4 IC50 (nM)]” value in test [1] is recorded as 2831.3833. Also, the “[Aurora A IC50 (nM)]/[PLK4 IC50 (nM)]” value in test [2] is given as 3483.1383.

Take `CCOc1cc(S(=O)(=O)CC)cnc1Nc1n[nH]c2cc([C@@H]3C[C@@]34C(=O)Nc3ccc(OC)cc34)ccc12` [Example 274, (1R,2S)-2-(3-{[5-(Ethanesulfonyl)-3-ethoxypyridin-2-yl]amino}-1H-indazol-6-yl)-5′-methoxyspiro[cyclopropane-1,3′-indol]-2′(1′H)-one]: the values for the IC50 with CHP-134 cells and at human recombinant PLK4 were 72.3 nM and 0.763 nM, respectively. Moreover, in test [1], the “[Aurora B IC50 (nM)]/[PLK4 IC50 (nM)]” value was found to be 961.3368. For the same compound, the “[Aurora A IC50 (nM)]/[PLK4 IC50 (nM)]” value in test [2] came out at 2560.9436.

With `CCOc1cc(S(C)(=O)=O)cnc1Nc1n[nH]c2cc([C@@H]3C[C@@]34C(=O)Nc3ccc(Cl)cc34)ccc12` [Example 276, (1R,2S)-5′-chloro-2-(3-{[3-ethoxy-5-(methanesulfonyl)pyridin-2-yl]amino}-1H-indazol-6-yl)spiro[cyclopropane-1,3′-indol]-2′(1′H)-one], the IC50 in the test on CHP-134 cells amounted to 4080 nM; at human recombinant PLK4, 2.61 nM. Moreover, the “[Aurora B IC50 (nM)]/[PLK4 IC50 (nM)]” value in test [1] was 2173.2976. Moreover, the “[Aurora A IC50 (nM)]/[PLK4 IC50 (nM)]” value in test [2] is on record as 377.9648.
